Results published in patent US6017958A, “Method of treating malignant tumors with thyroxine analogues having no significant hormonal activity” (Octamer, Inc., priority 1997, dated 2000).
Where two headings read alike, the source gives them in different places.

Key:
DIME-esterase = test: Esterase cleavage of DIME in tissue homogenates; format: in vitro ADME; details: mouse tissue homogenates
Method: (a) mouse tissue homogenate (brain, kidney, liver lung) consisting of 0.2 g of tissue in 1.0 ml. of homogenization buffer (50 mM Tris (pH 7.4), 400 mM NaCl, 10 mM MgCl2, 1 mM EDTA, 0.5% NP-40, 0.5 mM PMSF) each were combined with 1.0 ml of MES buffer (100 mM ph 6.5) containing 20 μM [^14 C]-DIME (10.55 mCi/mmol), and the mixtures were incubated at 37° C. for 4 hours. Then to each tube was added sequentially ethyl acetate (1.5 ml), ammonium sulfate (900 mg) and 60% perchloric acid (160 μl), with vortexing after each addition. After standing for 10 minutes, phase separation was enhanced by benchtop centrifugation. The upper (ethyl acetate) layer was drawn off, and the lower aqueous and interphase material was extracted with a second portion of ethyl acetate (1.5 ml). The ethyl acetate extracts (combined) contained more than 90% of the total cpm present in the original incubate (ca. 4×10^5 cpm). The extracts were evaporated to dryness using a stream of N^2, the respective residues taken up in ethyl acetate (100 μl) and aliquots (10 μl) spotted on analytical silica-gel TLC plates (Whatman PE SIL G/UV flexible plates 250 μm thickness, 10 cm×20 cm) and developed with 3:1:0.8 v:v:v n-hexane/ethyl acetate/ethanol. Analyte bands, including [^14 C]-DIME as reference standard, were visualized by autoradiography. […]
radioactivity of the [^14 C]-DIME was 20,470 cpm/nmol.

[1] = system: seven human cancer cell lines; test: Cytocidal action on human cancer cell lines; format: cell-based
Method: (§1) Seven human cancer cell lines were obtained from the American Tissue Culture Collection (Rockville, Md.) and maintained in the recommended growth media. Cells were seeded into wells (2 cm^2) at a density of 2×10^4 cells/cm^2. Various concentrations of Compounds 1-13 were added to the media at the time of seeding.
(§2) The cultures were incubated for 72 hours at 37° C. (5% CO2 atmosphere). Following incubation, cells were detached with trypsin and counted in a hemocytometer.

E-ras 20 cells = test: Growth inhibition, E-ras 20; format: cell-based, bovine; details: Bos taurus, 72 h; day 3; Table 11; read-out: I50 (day 3)
Method: (§3) E-ras 20 cells were cultured as reported, Bauer et al., 1996, "Modification of growth related enzymatic pathways and apparent loss of tumorigenicity of a ras-transformed bovine endothelial cell line by treatment with 5-iodo-6-amino-1,2-benzopyrone (INH2 BP)" Intl. J. Oncol. 8:239-252; HT-144 (melanoma), DU-145 (prostatic cancer), HeLa (cervical cancer), HL 60 (promyelocytic leukemia), MDA-MB-231 (mammary cancer), SK-Br-3 (mammary cancer), T47D (ductal mammary cancer), A559 (lung cancer) were obtained from American Type Culture Collection (Rockville, Md.) and cultured in prescribed media. The effect of DIME was tested in cultures with a starting cell density of 2×10^4 cells per cm^2 and comparison of the effect of DIME on cell growth (intact cells identified by Trypan blue exclusion) was assayed by direct cell counting after trypsinization in a hemocytometer 72 hours after drug addition.
(§4) For DIME-exposure experiments cells were seeded into 2 cm^2 wells at a density of 2×10^4 cells/cm^2. DIME at various concentrations was added to the medium at the time of seeding. The cell cultures were then incubated for 3 days (37° C. in 5% at CO2 atmosphere).

[2] = system: E-ras 20 cells (E-ras transformed bovine endothelial cells); test: Tumorigenicity of pretreated E-ras 20 cells in athymic nude mice; design: species or system bovine cells in nude mice; details: 10 μM pretreatment, no in vivo drug treatment
HT 144 (melanoma) = test: Cytocidal action/growth inhibition, HT 144; format: cell-based; details: Homo sapiens
Method: as §1, §2
I100 designates the concentration at which no viable cells remained; I50 the concentration at which 50% viable cells remained, as compared to a control.
as §3, §4

MDA-MB-231 xenografts = details: cited from earlier work
MDA-MB-231 cells [3] = test: Immunocytochemistry of mitotic spindle and spindle-associated proteins; format: cell-based, human; details: 18 hrs
Method: Cells were fixed in methanol at -20° C. for 5 min. The primary antibody was mouse monoclonal anti-beta tubulin (Amersham) and secondary antibody from goat, conjugated to fluorescein isothiocyanate from Cappel (Durham, N.C., USA). The DNA of nuclei was stained by 10 min of incubation in 0.05 μg/ml 4'-6-diamidono-2-phenylindole (DAPI). Stained cells were viewed with either a Zeiss 40xPlan-Neofluar or a Nikon 60xPlanApo objective. For classification of cells in the mitotic phase, prophase and metaphase were combined into a single category, because it was difficult to distinguish late prophase from metaphase.
In preliminary studies (data not shown) we have also studied the behavior of certain spindle-associated proteins by the immunocytologic technique.

[4] = system: biosynthetic pathways of DNA, RNA or proteins; test: Metabolic action and biosynthetic pathways
MDA-MB-231 cells [5] = test: Colony formation / cell killing; format: cell-based, human
Method: Assays for Quantitation of colony formation were performed as reported, Vidair, et al., 1986 "Evaluation of a Role for Intracellular Na^+, K^+, Ca2^+ and Mg^2+ in hyperthermic cell killing" Radiation Res. 105:187-200.

In the case of `COC(=O)c1cc(I)c(Oc2ccc(OC)cc2)c(I)c1` [Compound 1, Methyl 3,5-diiodo-4-(4'-methoxyphenoxy)benzoate], the “DIME-esterase activity” value (DIME-esterase) is reported as “highest rate of "DIME-esterase" activity occurred in brain homogenates”, the “cytocidal action” value ([1]; 72 hours) is reported as “maximally active” and the “activity in cellular assays and in vivo” value ([1]; cellular assays and in vivo) is reported as “highly active”. For the same molecule, the IC50 (E-ras 20 cells) was 1000 nM, the “tumor appearance after 3 months” value [2] was “Tumors did not appear even after 3 months” and the IC50 (HT 144 (melanoma); HT-144, 72 h, day 3, Table 11, read-out: I50 (day 3)) was 500 nM. The IC50 (HT 144 (melanoma); HT-144, 72 h, Table 4, read-out: I50) was 500 nM, the IC100 (HT 144 (melanoma); HT-144, 72 h, Table 4, read-out: I100 (no viable cells remained)) was 4 µM and the “dose-response of antitumor effect” value (MDA-MB-231 xenografts; 0.25 g/kg and 1.0 g/kg) was “had the same antitumor effect”. The tumor regression (MDA-MB-231 xenografts; 25-35 days, 0.25 to 1.0 g/kg daily per os, nude mice (Kun et al., 1996)) was 70-85%, the “mitotic spindle / tubulin distribution” value (MDA-MB-231 cells [3]; 1 μM) was “striking abnormalities of-tubulin distribution” and the “Cyclin B-microtubule-spindle association” value (MDA-MB-231 cells [3]; 1 μM, data not shown) was “remained unchanged”. The cdc-2 kinase-spindle binding (MDA-MB-231 cells [3]; 1 μM, data not shown) was “induction of cdc-2-kinase-spindle binding”, the number of centrosomes (MDA-MB-231 cells [3]; 1 μM, data not shown) was “unable to detect abnormal number of centrosomes” and the pericentrin staining pattern (MDA-MB-231 cells [3]; 1 μM, data not shown) was “did not alter the pattern of staining”. For the same molecule, the “protein phosphatase 2a-spindle association” value (MDA-MB-231 cells [3]; 1 μn (so in the source), data not shown) was “not influenced by drug-treatment”, the “inhibition of biosynthetic pathways of DNA, RNA or proteins” value [4] was “nor does it inhibit the biosynthetic pathways of DNA, RNA or proteins” and the metabolic action [4] was “no metabolic action”. The colony forming ability (MDA-MB-231 cells [5]; 1-2 μM, 10 days) was “profoundly diminished” and the “cell killing after drug removal” value (MDA-MB-231 cells [5]; DIME removed prior to end of 8 hours incubation) was “cell killing was prevented and drug-induced morphologic changes were completely reversed”.
